# Measured values: US9315829B2, “Methods for intracellular delivery of nucleic acids” (UNIVERSITE PARIS DESCARTES, priority 2010, dated 2016)
# Legend:
# tibialis anterior muscle = experiment: Luciferase expression in tibialis anterior muscle after injection of naked pVAX2-Luc (Example 6); format: in vivo, mouse; conditions: water control 6.749
# Method: Luminescence is expressed in counts/s/ml/mg of protein (cps/ml/mg). The results are expressed as the mean±sem of 3 independent experiments. […] Intramuscular injection in the mouse tibialis anterior muscle was carried out with a 30 G needle on a 300 μl microfine syringe (BD Biosiences). Mouse receiving injection of pVAX2-luc in the tibialis anterior muscle were sacrificed on day 7 after treatment. The tibialis anterior muscle was removed, snap frozen in liquid nitrogen and kept at −80° C. until tested. Tissue samples were then homogenized in 0.3 ml (rat neuroretina and RPE/choroid complex) or 1.0 ml (mouse tibialis anterior muscle) of cell culture lysis reagent (Promega, Charbonniere, France) supplemented with protease inhibitor cocktail (Boehringer, Mannheim, Germany) (one tablet for 50 ml). After centrifugation 10 min at 15 000 g and 4° C., tissue lysate supernatant was collected. The luciferase activity was assessed on 10 μl of sample (tissue lysate supernatant or ocular fluid) placed in a white 96 wells plate. The detector was a Wallac Victor luminometer (EG&G Wallac, Evry, France) which adds 50 μl of luciferase assay substrate or Gaussia luciferase assay substrate (Promega) to the sample (tissue lysate supernatant or ocular fluid respectively) and integrates the light produced by the sample during 10 s. Results are given for the whole sample in counts per second (cps) or in cps/ml/mg of protein. One hundred μg of pVAX1-LacZ or thirty μg of naked pVAX2-Luc in 100 or 30 μl in NaCl 0.45% were, respectively, injected into the tibialis anterior muscle of rats or into the tibialis anterior muscle of mice. In the mice, the plasmid injection was preceded 30 min before by intramuscular injection of 30 μl of triamcinolone acetonide (TA) or dexamethasone (DEX) at 2 or 20 mg/ml, or soluble DEX at 4 mg/ml. Pre-injection with water was performed as control.
# ciliary muscle = experiment: Luciferase expression in aqueous humor after transfection of the ciliary muscle with naked pGLuc (Example 5); format: in vivo, rat; conditions: for Luciferase (cps) Mean ± sem, level of expression in aqueous humor: pre-treatment 20 mg/ml (10 μl) 45 min before 15 μg pGLuc, day 7, background 99.3 ± 1.5, water 103.5 ± 3.2
# Method: FIG. 6: Illustrates the intracellular delivery of naked plasmids to a smooth muscle, the ciliary muscle, and subsequent gene expression in ocular media. Intramuscular pre-injection of triamcinolone acetonide (TA) or anecortave acetate (AA) at 20 mg/ml (10 μl) was carried out 45 min before intramuscular injection of the naked plasmid pGLuc (15 μg in 10 μl in NaCl 0.45%). No transfection or water instead of corticosteroid was used as control. Luminescence is expressed in counts/s (cps). The results are expressed as the mean±sem of 4 to 6 independent experiments.
# To reach the ciliary muscle located below the sclera posterior to the limbus, the intra ciliary muscle injection was carried out through a tunneled corneal incision. When the needle had crossed the limbus, it was inserted slightly deeper for a distance of 1 mm and the solutions were injected.
# Rats receiving injection of pGLuc in the ciliary muscle were sacrificed on day 7 after treatment. Intraocular fluids were collected on enucleated eyes, clarified by centrifugation and the supernatants stored at −20° C. until tested.
# (§1) The luciferase activity was assessed on 10 μl of sample (tissue lysate supernatant or ocular fluid) placed in a white 96 wells plate.
# (§2) The detector was a Wallac Victor luminometer (EG&G Wallac, Evry, France) which adds 50 μl of luciferase assay substrate or Gaussia luciferase assay substrate (Promega) to the sample (tissue lysate supernatant or ocular fluid respectively) and integrates the light produced by the sample during 10 s. Results are given for the whole sample in counts per second (cps) or in cps/ml/mg of protein.
# Fifteen μg of naked pGLuc in 10 μl in NaCl 0.45% was injected in the ciliary muscle of one eye of anaesthetized rats (the contra lateral eye was used as control).
# The plasmid injection was preceded 45 min before by intramuscular injection of 10 μl of triamcinolone acetonide (TA, 20 mg/ml) or anecortave acetate (AA, 20 mg/ml), a synthetic corticosteroid.
# No injection and pre-injection with water were performed as controls.
# RPE-choroid complex = experiment: IVT injection of naked pVAX2-Luc followed by gas injection and/or ET, luciferase in RPE-choroid complex (Example 1); format: in vivo, rat; conditions: IVT pre-injection 30 min before plasmid, Indocyanin Green 2.5 mg/ml, Polysorbate 80 0.2 mg/ml
# Method: (§3) FIG. 2: Illustrates the intracellular delivery of naked plasmids and gene expression in the neuroretina (FIG. 2A) and the RPE-choroid complex (FIG. 2B) of IVT pre-injection of 10 μl of the corticosteroid pharmaceutical specialty KENACORT® at 20 mg/ml (triamcinolone acetonide (TA) as active agent and polysorbate 80 as excipient), Indocyanine Green at 2.5 mg/ml or Polysorbate 80 at 0.2 mg/ml 30 min before IVT injection of the plasmid pVAX2-Luc (30 μg in 10 μl in NaCl 0.45%), followed by gas injection or ET application [8×(80V; 20 ms; 5 Hz)] or combination of both immediately upon IVT injection of the plasmid. Luminescence is expressed in counts/s (cps). The results are expressed as the mean±sem of 4 independent experiments.
# Rats receiving intravitreal injection of pVAX2-luc were sacrificed on day 7 after treatment. The eyes were enucleated and dissected under an operating microscope, the neuroretina and RPE/choroid complex removed, snap frozen in liquid nitrogen and kept at −80° C. until tested.
# Tissue samples were then homogenized in 0.3 ml (rat neuroretina and RPE/choroid complex) or 1.0 ml (mouse tibialis anterior muscle) of cell culture lysis reagent (Promega, Charbonniere, France) supplemented with protease inhibitor cocktail (Boehringer, Mannheim, Germany) (one tablet for 50 ml). After centrifugation 10 min at 15 000 g and 4° C., tissue lysate supernatant was collected.
# as §1, §2
# The effect of various chemical agents on the RPE-choroid complex gases injection or electrotransfer-induced intracellular delivery of the naked plasmid pVAX2-Luc and gene expression of the luciferase in neuroretina was evaluated.
# Thirty μg of naked pVAX2-Luc in 10 μl in NaCl 0.45% was injected intravitreously in one eye of anaesthetized rats (the contra lateral eye was used as control) immediately followed by gas injection (C2F6 or SF6) or ET application [8×(80V; 20 ms; 5 Hz)] or combination of both. […]
# (§4) 7 days after the treatment the animals were sacrificed, the eyes were enucleated and dissected under an optical microscope to isolate the neuroretina and the RPE-choroid complex and the luminescence of the luciferase was measured.
# neuroretina = experiment: IVT injection of naked pVAX2-Luc followed by gas injection and/or ET, luciferase in neuroretina (Example 1); format: in vivo, rat; conditions: IVT pre-injection 30 min before plasmid, Indocyanin Green 2.5 mg/ml, Polysorbate 80 0.2 mg/ml
# Method: as §3, with “experiments. […]” for “experiments.”
# The luciferase activity was assessed on 10 μl of sample (tissue lysate supernatant or ocular fluid) placed in a white 96 wells plate. […]
# The effect of various chemical agents on the RPE-choroid complex gases injection or electrotransfer-induced intracellular delivery of the naked plasmid pVAX2-Luc and gene expression of the luciferase in neuroretina was evaluated. […]
# as §4
# [1] = pre-treatment 2 mg/ml (30 μl) 30 min before plasmid
# [2] = pre-treatment 20 mg/ml (30 μl) 30 min before plasmid
Molecule,Luciferase (cps) means (10^6) (tibialis anterior muscle; [1]),Luciferase (cps) means (10^6) (tibialis anterior muscle; [2]),"Luciferase (cps) Mean ± sem, level of expression in aqueous humor (ciliary muscle) [cps]",level of expression of Luciferase in the aqueous humor compared to naked plasmid alone (ciliary muscle; pre-injection 20 mg/ml (10 μl) 45 min before 15 μg pGLuc),"improvement of the efficacy of gases injection, by contrast with KENACORT (RPE-choroid complex)",improvement of the efficiency of ET (RPE-choroid complex),"efficiency in improving transfection, by contrast with KENACORT (neuroretina)"
"C[C@@H]1C[C@H]2[C@@H]3CCC4=CC(=O)C=C[C@]4(C)[C@@]3(F)[C@@H](O)C[C@]2(C)[C@@]1(O)C(=O)CO [DEX, dexamethasone]",8.526 10^6 cps,30.13 10^6 cps,–,–,–,–,–
"CC1(C)O[C@@H]2C[C@H]3[C@@H]4CCC5=CC(=O)C=C[C@]5(C)[C@@]4(F)[C@@H](O)C[C@]3(C)[C@]2(C(=O)CO)O1 [TA, triamcinolone acetonide]",6.849 10^6 cps,6.431 10^6 cps,122.3 ± 6.8,–,–,–,–
"CC(=O)OCC(=O)[C@@]1(O)CC[C@H]2[C@@H]3CCC4=CC(=O)CC[C@]4(C)C3=CC[C@@]21C [AA, anecortave acetate]",–,–,122.5 ± 7.2,dramatically improve,–,–,–
polysorbate 80,–,–,–,–,less efficient,"improved, in a certain extent",less efficient
"CC1(C)C(/C=C/C=C/C=C/C=C2\N(CCCCS(=O)(=O)O)c3ccc4ccccc4c3C2(C)C)=[N+](CCCCS(=O)(=O)[O-])c2ccc3ccccc3c21 [Indocyanin Green, indocyanine green]",–,–,–,–,less efficient,"improved, in a certain extent",less efficient
